Reference: patent US8642808B2, “Bis-aryl sulfonamides” (ChemoCentryx, Inc., priority 2002, dated 2014)
pIC50: −log10 of the molar value.

What follows are compounds tested on MDR1α-knockout mice (assay: in vivo efficacy study in MDR1α-knockout mice (spontaneous colitis, delay of disease onset)). Details: female MDR1α-knockout mice, 50 mg/kg twice a day intraperitoneal, 14 consecutive days.
Description: The MDR1α-knockout mice, which lack the P-glycoprotein gene, spontaneously develop colitis under specific pathogen-free condition. The pathology in these animals has been characterized as Th1-type T cell-mediated inflammation similar to ulcerative colitis in humans. Disease normally begins to develop at around 8-10 weeks after birth. But the ages at which disease emerges and the ultimate penetrance level often vary considerably among different animal facilities.
In a study using the MDR1α-knockout mice, the known compound shown below was tested for its ability to delay disease onset during a short treatment regimen.
This compound is structurally similar to the claimed modulators (I) of the present invention. Female mice (n=15) were dosed with 50 mg/kg twice a day by intraperitonial injection, starting at age 13 weeks for 14 consecutive days. The study was terminated when the mice reached age 17 weeks at which point the disease penetrance level measured by diarrhea incidence reached 55%. […] This protection extended one to two weeks after treatment stopped (FIG. 1).

SMILES	duration of protection after treatment stopped
COc1ccc(S(=O)(=O)Nc2ccc(Cl)cc2C(=O)c2ccccc2)cc1 [drawing 79]	one to two

Same assay, conditions: female MDR1α-knockout mice, 50 mg/kg twice a day intraperitoneal, 14 consecutive days from age 13 weeks

SMILES	tolerability
COc1ccc(S(=O)(=O)Nc2ccc(Cl)cc2C(=O)c2ccccc2)cc1 [drawing 79]	well tolerated

Same assay, conditions: female MDR1α-knockout mice, 50 mg/kg twice a day intraperitoneal, 14 consecutive days from age 13 weeks; compared with vehicle

SMILES	onset of IBD symptoms (diarrhea incidence)
COc1ccc(S(=O)(=O)Nc2ccc(Cl)cc2C(=O)c2ccccc2)cc1 [drawing 79]	significant delay in the onset of IBD symptoms

What follows are compounds tested against T1, CCR9 (Homo sapiens, UniProt P51686) (assay: chemotaxis (conventional migration) assay and/or calcium mobilization (calcium flux) assay, TECK-stimulated MOLT-4 cells). Details: TECK-induced migration and/or calcium signal, read-out: activity (IC50) in either or both of the chemotaxis assay and calcium mobilization assays.
T1 construct: CCR9-expressing cells (such as a T cell line MOLT-4 cells); host or cells: MOLT-4
T1 sequence (P51686 1-369): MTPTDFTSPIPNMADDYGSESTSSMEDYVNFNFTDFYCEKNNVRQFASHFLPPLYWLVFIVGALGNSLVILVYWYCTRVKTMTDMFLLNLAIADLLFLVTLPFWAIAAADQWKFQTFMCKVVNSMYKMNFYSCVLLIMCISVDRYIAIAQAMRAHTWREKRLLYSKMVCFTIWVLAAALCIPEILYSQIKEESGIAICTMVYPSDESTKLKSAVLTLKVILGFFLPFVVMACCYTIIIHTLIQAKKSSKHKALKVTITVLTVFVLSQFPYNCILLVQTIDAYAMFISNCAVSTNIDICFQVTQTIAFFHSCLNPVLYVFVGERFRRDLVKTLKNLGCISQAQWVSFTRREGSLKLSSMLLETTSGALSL
Type: cell-based
Method: MOLT-4 cells were obtained from the American Type Culture Collection (Manassas, Va.) and cultured in RPMI tissue culture medium supplemented with 10% fetal calf serum (FCS) in a humidified 5% CO2 incubator at 37° C. Recombinant human chemokine protein TECK was obtained from R&D Systems (Minneapolis, Minn.). ChemoTX® chemotaxis microchambers were purchased from Neuro Probe (Gaithersburg, Md.). CyQUANT® cell proliferation kits were purchased from Molecular Probes (Eugene, Oreg.). Calcium indicator dye Fluo-4 AM was purchased from Molecular Devices (Mountain View, Calif.).
Conventional migration assay was used to determine the efficacy of potential receptor antagonists in blocking migration mediated through CCR9. This assay was routinely performed using the ChemoTX® microchamber system with a 5-μm pore-sized polycarbonate membrane. To begin such an assay, MOLT-4 cells were harvested by centrifugation of cell suspension at 1000 PRM on a GS-6R Beckman centrifuge. The cell pellet was resuspended in chemotaxis buffer (HBSS with 0.1% BSA) at 5×10^6 cells/mL. Test compounds at desired concentrations were prepared from 10 mM stock solutions by serial dilutions in chemotaxis buffer. An equal volume of cells and compounds were mixed and incubated at room temperature for 15 minutes. Afterwards, 20 μL of the mixture was transferred onto the porous membrane of a migration microchamber, with 29 μL of 50 nM chemokine TECK protein placed at the lower chamber. Following a 150-minute incubation at 37° C., during which cells migrated against the chemokine gradient, the assay was terminated by removing the cell drops from atop the filter. To quantify cells migrated across the membrane, 5 μL of 7X CyQUANT® solution was added to each well in the lower chamber, and the fluorescence signal measured on a Spectrafluor Plus fluorescence plate reader (TECAN, Durham, N.C.). The degree of inhibition was determined by comparing migration signals between compound-treated and untreated cells. IC50 calculation was further performed by non-linear squares regression analysis using Graphpad Prism (Graphpad Software, San Diego, Calif.).
Calcium flux assay measures an increase in intracellular calcium following ligand-induced receptor activation. In the screen of CCR9 antagonists, it was used as a secondary assay carried out on a FLIPR® machine (Molecular Devices, Mountain View, Calif.). To begin an assay, MOLT-4 cells were harvested by centrifugation of cell suspension, and resuspended to 1.5×10^6 cells/mL in HBSS (with 1% fetal calf serum). Cells were then labeled with a calcium indicator dye Fluo-4 AM for 45 minutes at 37° C. with gentle shaking. Following incubation, cells were pelletted, washed once with HBSS and resuspended in the same buffer at a density of 1.6×10^6 cells/mL. One hundred microliters of labeled cells were mixed with […] of test compound at the appropriate concentrations on an assay plate. Chemokine protein TECK was added at a final concentration of 25 nM to activate the receptor. The degree of inhibition was determined by comparing calcium signals between compound-treated and untreated cells. IC50 calculations were further performed by non-linear squares regression analysis using Graphpad Prism (Graphpad Software, San Diego, Calif.).
In the table below, structures and activity are provided for representative compounds described herein. Activity is provided as follows for either or both of the chemotaxis assay and/or calcium mobilization assays, described above: + 1000 nM<IC50<10000 nM; ++, 100 nM<IC50<1000 nM; and +++, IC50<100 nM.

pIC50	SMILES
> 7.00	CC(C)(C)c1ccc(S(=O)(=O)Nc2ccc(Cl)cc2C(=O)c2ccccc2)cc1
> 7.00	COc1ccc(S(=O)(=O)Nc2ccc(Br)cc2C(=O)c2ccccc2)cc1
> 7.00	COc1ccc(S(=O)(=O)Nc2ccc(F)cc2C(=O)c2ccccc2)cc1
> 7.00	C=Cc1ccc(S(=O)(=O)Nc2ccc(Cl)cc2C(=O)c2ccccc2)cc1
> 7.00	O=C(c1ccccc1)c1cc(Cl)ccc1NS(=O)(=O)c1ccc(I)cc1
> 7.00	CCc1ccc(S(=O)(=O)Nc2ccc(Br)cc2C(=O)c2ccccc2)cc1
> 7.00	O=C(c1ccccc1)c1cc(Br)ccc1NS(=O)(=O)c1ccc(-c2cocn2)cc1
> 7.00	CCc1ccc(S(=O)(=O)Nc2ccc(Cl)cc2C(=O)c2ccccc2)cc1
> 7.00	CC(C)Oc1ccc(S(=O)(=O)Nc2ccc(Cl)cc2C(=O)c2ccccc2)cc1
> 7.00	CC(=O)c1ccc(S(=O)(=O)Nc2ccc(Cl)cc2C(=O)c2ccccc2)cc1
6.00 to 7.00	CCCCc1ccc(S(=O)(=O)Nc2ccc(Cl)cc2C(=O)c2ccccc2)cc1
6.00 to 7.00	O=C(c1ccccc1)c1cc(Cl)ccc1NS(=O)(=O)c1ccc(-c2cccs2)cc1
6.00 to 7.00	O=C(c1ccccc1)c1cc(Cl)ccc1NS(=O)(=O)c1ccc(Br)cc1
6.00 to 7.00	N#Cc1cccc(S(=O)(=O)Nc2ccc(Cl)cc2C(=O)c2ccccc2)c1
6.00 to 7.00	CC(C)c1ccc(S(=O)(=O)Nc2ccc(Cl)cc2C(=O)c2ccccc2)cc1
6.00 to 7.00	O=C(c1ccccc1)c1cc(Cl)ccc1NS(=O)(=O)c1ccc2c(c1)CCO2
6.00 to 7.00	COc1ccc(S(=O)(=O)Nc2cc(Br)ccc2C(=O)c2ccccc2)cc1
6.00 to 7.00	CC(=O)Nc1ccc(S(=O)(=O)Nc2ccc(Cl)cc2C(=O)c2ccccc2)cc1Cl
5.00 to 6.00	O=C(c1ccccc1)c1cc(Cl)ccc1NS(=O)(=O)c1ccccc1F
5.00 to 6.00	O=C(c1ccccc1)c1cc(Cl)ccc1NS(=O)(=O)c1ccc(Cl)cc1Cl
5.00 to 6.00	O=C(c1ccccc1)c1cc(Cl)ccc1NS(=O)(=O)c1ccc(Cl)c(Cl)c1
5.00 to 6.00	COc1ccc(S(=O)(=O)Nc2ccc(Cl)cc2C(=O)c2ccccc2F)cc1
5.00 to 6.00	COc1cccc(S(=O)(=O)Nc2ccc(Cl)cc2C(=O)c2ccccc2)c1

Continued, compound first:

SMILES	pIC50
CC(C)(C)c1ccc(S(=O)(=O)Nc2cc(Cl)ccc2C(=O)c2ccccc2)cc1	> 7.00
CS(=O)(=O)c1ccc(S(=O)(=O)Nc2ccc(Cl)cc2C(=O)c2ccccc2)cc1	> 7.00
O=C(c1ccccc1)c1cc(Cl)ccc1NS(=O)(=O)c1ccc(-c2cnco2)cc1	> 7.00
O=C(c1ccccc1)c1cc(Cl)ccc1NS(=O)(=O)c1ccc(C(F)(F)F)cc1	> 7.00
CC(=O)c1ccc(S(=O)(=O)Nc2ccc(Br)cc2C(=O)c2ccccc2)cc1	> 7.00
O=C(c1ccccc1)c1cc(Cl)ccc1NS(=O)(=O)c1ccc(OC(F)(F)F)cc1	> 7.00
COC(=O)CCc1ccc(S(=O)(=O)Nc2ccc(Cl)cc2C(=O)c2ccccc2)cc1	> 7.00
CC(C)(C)c1ccc(S(=O)(=O)Nc2ccc(Br)cc2C(=O)c2ccccc2)cc1	> 7.00
CCC(C)(C)c1ccc(S(=O)(=O)Nc2ccc(Cl)cc2C(=O)c2ccccc2)cc1	> 7.00
O=C(c1ccccc1)c1cc(Cl)ccc1NS(=O)(=O)c1ccc(Nc2cccnc2)cc1	6.00 to 7.00
CC(C)(C)c1ccc(S(=O)(=O)Nc2ccc(Cl)cc2C(=O)c2ccc(F)cc2)cc1	6.00 to 7.00
O=C(c1ccccc1)c1cc(Cl)ccc1NS(=O)(=O)c1cccc(F)c1	6.00 to 7.00
O=C(c1ccccc1)c1cc(Cl)ccc1NS(=O)(=O)c1ccc(C#Cc2ccccc2)cc1	6.00 to 7.00
CC(=O)Nc1ccc(S(=O)(=O)Nc2ccc(Cl)cc2C(=O)c2ccccc2)cc1	6.00 to 7.00
O=C(c1ccccc1)c1cc(Cl)ccc1NS(=O)(=O)c1ccc(F)cc1	6.00 to 7.00
O=C(c1ccccc1)c1cc(Cl)ccc1NS(=O)(=O)c1ccc(-n2cccn2)cc1	6.00 to 7.00
N#Cc1ccc(S(=O)(=O)Nc2ccc(Cl)cc2C(=O)c2ccccc2)cc1	6.00 to 7.00
CCCCOc1ccc(S(=O)(=O)Nc2ccc(Cl)cc2C(=O)c2ccccc2)cc1	5.00 to 6.00
COc1ccc(-c2ccc(S(=O)(=O)Nc3ccc(Cl)cc3C(=O)c3ccccc3)cc2)cc1	5.00 to 6.00
COc1ccc(S(=O)(=O)Nc2ccc(OC)cc2C(=O)c2ccccc2)cc1	5.00 to 6.00
COc1ccc(OC)c(S(=O)(=O)Nc2ccc(Cl)cc2C(=O)c2ccccc2)c1	5.00 to 6.00
O=C(c1ccccc1)c1cc(Cl)ccc1NS(=O)(=O)c1cccc(C(F)(F)F)c1	5.00 to 6.00
COc1ccc(S(=O)(=O)Nc2ccc(Cl)cc2C(=O)c2ccccc2)cc1 [drawing 93]	> 7.00
